According to ChEMBL document CHEMBL1275499, “Glycogen synthase kinase 3 is a potential drug target for African trypanosomiasis therapy” (Antimicrob Agents Chemother, 2008):

Assays:
Trypanosoma brucei = experiment: microbe, parasite or virus in culture; assay type: functional, organism-based; conditions: Trypanosoma brucei, 427, 48 h
Description: Antitrypanosomal activity against blood stream form of Trypanosoma brucei 427 assessed as growth inhibition after 48 hrs by alamar blue assay

[1] = Inhibition of Trypanosoma brucei recombinant MBP-fused GSK-3 short isoform expressed in Escherichia coli by scintillation proximity assay

Row | EC50 (Trypanosoma brucei) [nM] | Compound | IC50 [1] [nM]
1 | 50 | CN(C)CCCC(=O)Nc1nccc(/C(C#N)=C2\NC(C(C)(C)C)=CS2)n1 | 4
2 | 65 | CN1CCC(C(=O)Nc2nccc(/C(C#N)=C3\NC(C(C)(C)C)=CS3)n2)CC1 | 30
3 | 410 | CC(=O)N1CCC(C(=O)Nc2nccc(/C(C#N)=C3\NC(C(C)(C)C)=CS3)n2)CC1 | 22
4 | 458 | CN(C)CC(=O)N1CCC(C(=O)Nc2nccc(/C(C#N)=C3\NC(C(C)(C)C)=CS3)n2)CC1 | 30
5 | 150 | N#CCCc1ccc2c(c1)-c1[nH]c3ccc([N+](=O)[O-])cc3c1CC(=O)N2 [ALSTERPAULLONE 2] | 336

Second part, the compound before the results:

Row | Compound | EC50 (Trypanosoma brucei) [nM] | IC50 [1] [nM]
6 | O=C1Nc2ccc3ncsc3c2/C1=C/Nc1ccc(S(=O)(=O)Nc2ccccn2)cc1 | 119 | 1
7 | Nc1nc(Nc2cccc(S(N)(=O)=O)c2)nn1C(=S)Nc1c(F)cccc1F | 20 | 13
8 | CC(C)(C)C1=CS/C(=C(\C#N)c2ccnc(NC(=O)C3CCNCC3)n2)N1 | 200 | 46
9 | CC(C)(C)C1=CS/C(=C(\C#N)c2ccnc(NCCCCN3C(=O)CCC3=O)n2)N1 | 705 | 168
10 | O=C1NC(=O)C(c2ccccc2[N+](=O)[O-])=C1Nc1ccc(O)c(Cl)c1 | 740 | 1000
11 | COc1ccc2c(c1)/C(=C/c1cnc[nH]1)C(=O)N2 [SU-9516] | 180 | 352
